For orientation: MIC means the lowest concentration found to suppress growth. By half-life is commonly meant how long it takes for the measured level to halve. Low readings indicate fast loss, high ones slow loss.

One data set concerns MSSE ATCC 12228. As to the kind of experiment: MIC, agar dilution, MSSE ATCC 12228. Type of data set: cell-based, S. epidermidis. As to conditions: Staphylococcus epidermidis, ATCC12228; MSSE ATCC 12228; read-out: MIC.
The subject of another data set is MSSA 15. As to the kind of experiment: MIC, agar dilution, MSSA 15 (clinical isolate). Type of data set: cell-based, S. aureus. As to conditions: Staphylococcus aureus; MSSA 15, isolated from patients in China; read-out: MIC. In general terms: In agar dilution, organisms are placed on agar that contains the substance at set levels.
The subject of another data set is VISA ATCC 700698. As to the kind of experiment: MIC, agar dilution, VISA ATCC 700698. It is filed as cell-based. The conditions noted are these: Staphylococcus aureus; VISA ATCC 700698; read-out: MIC.
For another data set, the system named is MRSE 16-5. As to the kind of experiment: MIC, agar dilution, MRSE 16-5. Type of data set: cell-based, S. epidermidis. As to conditions: Staphylococcus epidermidis; MRSE 16-5; read-out: MIC.
The test system of another data set is MSSE 16-5. Nature of the data set: MIC, agar dilution, MSSE 16-5 (clinical isolate). As to conditions: Staphylococcus epidermidis; MSSE 16-5, isolated from patients in China; read-out: MIC. It is filed as cell-based, S. epidermidis.
The subject of a further data set is MRSA ATCC -BAA-976. As to the kind of experiment: MIC, agar dilution, MRSA ATCC-BAA-976 (clindamycin-resistant). The conditions noted are these: Staphylococcus aureus; MRSA ATCC-BAA-976, clindamycin-resistant S. aureus; read-out: MIC. Type of data set: cell-based.
For another data set, the system named is MSSA ATCC 29213. As to the kind of experiment: MIC, agar dilution, MSSA ATCC 29213. It is filed as cell-based, S. aureus. As to conditions: Staphylococcus aureus; MSSA ATCC 29213; read-out: MIC.
The next data set concerns MRSA ATCC 43300. As to the kind of experiment: MIC, agar dilution, MRSA ATCC 43300. It is filed as cell-based. The conditions noted are these: Staphylococcus aureus; MRSA ATCC 43300; read-out: MIC.
The next data set has as its system MRSA 13-18. Nature of the data set: MIC, agar dilution, MRSA 13-18. It is filed as cell-based. The conditions noted are these: Staphylococcus aureus; MRSA 13-18; read-out: MIC.
A further data set concerns MRSE 13-3. As to the kind of experiment: MIC, agar dilution, MRSE 13-3. Type of data set: cell-based, S. epidermidis. As to conditions: Staphylococcus epidermidis; MRSE 13-3; read-out: MIC.
For another data set, the system named is S.h ATCC 35982. As to the kind of experiment: MIC, agar dilution, S.h ATCC 35982. It is filed as cell-based. The conditions noted are these: Staphylococcus hominis, ATCC35982; S. hominis ATCC 35982; read-out: MIC.
Another data set deals with MSSA/MRSA tested strains. The arrangement: method as in PMID 29795764, PMID 30145374. As to conditions: cited from earlier work.
The subject of another data set is S.s ATCC 15305. As to the kind of experiment: MIC, agar dilution, S.s ATCC 15305. As to conditions: Staphylococcus saprophyticus, ATCC15305; S. saprophyticus ATCC 15305; read-out: MIC. Type of data set: cell-based.
The test system of the next data set is MRSA 13-23. Nature of the data set: MIC, agar dilution, MRSA 13-23. Type of data set: cell-based. The conditions noted are these: Staphylococcus aureus; MRSA 13-23; read-out: MIC.
A further data set concerns VISA ATCC 700699. As to the kind of experiment: MIC, agar dilution, VISA ATCC 700699. It is filed as cell-based. The conditions noted are these: Staphylococcus aureus; VISA ATCC 700699; read-out: MIC.
A further data set has as its system MRSA ATCC-B AA-1708. Nature of the data set: MIC, agar dilution, MRSA ATCC-BAA-1708 (mupA positive). It is filed as cell-based. As to conditions: Staphylococcus aureus; MRSA ATCC-BAA-1708, mupA positive (mupirocin resistance); read-out: MIC.
The next data set has as its system MSSA 16-1. Nature of the data set: MIC, agar dilution, MSSA 16-1 (clinical isolate). It is filed as cell-based, S. aureus. The conditions noted are these: Staphylococcus aureus; MSSA 16-1, isolated from patients in China; read-out: MIC.
The next data set deals with MRSA 16-34. As to the kind of experiment: MIC, agar dilution, MRSA 16-34. It is filed as cell-based. As to conditions: Staphylococcus aureus; MRSA 16-34; read-out: MIC.
The nature of data set [1]: Stability in liver microsomes, rat. It is filed as in vitro ADME, SD rat. On the procedure: (§1) The assay was performed with liver microsomes from CD-1 mouse, SD rat and human. Microsomes in 100 mM potassium phosphate buffer (0.5 mg/mL microsomal protein), cofactor MgCl2 (10 mM), tested compound (1 μM, cosolvent (0.01% DMSO), 0.99% CH3OH), and then NADPH (1 mM) at 37 °C for 60 min. The reaction can be started by the addition of liver microsomes or the tested compound or NADPH. Aliquots were sampled at 0, 5, 10, 20, 30 and 60 min incubation, and enzymatic reaction was stopped by protein precipitation in cold acetonitrile including 100 ng/mL tolbutamide and 100 ng/mL labetalol as internal standard. After centrifugation, samples were then analyzed by LC/MS/MS [26].
A general note: Microsomes from liver hold many membrane-bound enzymes, among them those of drug oxidation.

Data set [2] is described as follows: Stability in liver microsomes, human. It is filed as in vitro ADME. On the procedure: The assay was performed with liver microsomes from CD-1 mouse, SD rat and human. […] The reaction can be started by the addition of liver microsomes or the tested compound or NADPH. Aliquots were sampled at 0, 5, 10, 20, 30 and 60 min incubation, and enzymatic reaction was stopped by protein precipitation in cold acetonitrile including 100 ng/mL tolbutamide and 100 ng/mL labetalol as internal standard. After centrifugation, samples were then analyzed by LC/MS/MS [26].

Data set [3] is described as follows: Stability in liver microsomes, mouse. It is filed as in vitro ADME, CD-1 mouse. On the procedure:
as §1

With `COc1ccc2c(c[n+]3c4c2ccc2c5c(cc(c24)CC3)OCO5)c1OC` [CBBR, cycloberberine], the MIC in the data set with MSSE ATCC 12228, in the data set with MSSA 15, with VISA ATCC 700698, with MRSE 16-5, in the data set on MSSE 16-5 and in the data set on MRSA ATCC -BAA-976 was > 64 µg/mL throughout. In addition, the MIC in the data set with MSSA ATCC 29213, in the data set on MRSA ATCC 43300, in the data set on MRSA 13-18, in the data set on MRSE 13-3, with S.h ATCC 35982 and with S.s ATCC 15305 was > 64 µg/mL throughout. Moreover, the MIC in the data set with MRSA 13-23, in the data set on VISA ATCC 700699, in the data set with MRSA ATCC-B AA-1708, in the data set on MSSA 16-1 and in the data set on MRSA 16-34 was > 64 µg/mL each time. For the same compound, in the data set with MSSA/MRSA tested strains (MSSA/MRSA), the “bactericidal activity” value was “no bactericidal activity at all”. Also, the “MICs (range over strains)” value in the data set on MSSA/MRSA tested strains (tested strains such as MRSA) is > 64 µg/mL.
Regarding `C[C@]12CC[C@H]3[C@@H](CCC4=CC(=O)CC[C@@]43C)[C@@H]1CC[C@@H]2O` [Tes, testosterone, reference compound], the “Remaining Ratio (T = 60 min)” value in data set [1] (60 min) was 0%; in data set [2] (60 min) it was 3.9%; in [3] (60 min), 0%. In addition, the half-life at 1 μM in data set [1] (SD, 1 μM) was 0.6 min; in data set [2] (1 μM) it was 12.9 min; in data set [3] (CD-1, 1 μM), 5.5 min. In addition, the microsomal CLint at 1 μM in [1] (SD, 1 μM, read-out: CL Int (mic)) was 2350 µL/min/mg; in data set [3] (CD-1, 1 μM, read-out: CL Int (mic)), 254 µL/min/mg.

(Values after paper PMC6429263, “Evolution and Antibacterial Evaluation of 8-Hydroxy-cycloberberine Derivatives as a Novel Family of Antibacterial Agents Against MRSA” (Molecules, 2019).)
